Laboratory results reported in patent US7435740B2 (King Pharmaceuticals Research and Development, Inc., priority 2005, dated 2008).
Read-outs that look alike come from different tables or passages of the source.

How the values were obtained:
[1] = target: T1, human recombinant A1 adenosine receptor (Homo sapiens, UniProt P30542); assay: [3H]-DPCPX binding to human A1 adenosine receptor expressed in CHO cells; conditions: for [3H] DPCPX binding to hA1, percentage in parentheses: percentage given after the > bound, meaning not defined in the patent
T1 sequence (P30542 1-326): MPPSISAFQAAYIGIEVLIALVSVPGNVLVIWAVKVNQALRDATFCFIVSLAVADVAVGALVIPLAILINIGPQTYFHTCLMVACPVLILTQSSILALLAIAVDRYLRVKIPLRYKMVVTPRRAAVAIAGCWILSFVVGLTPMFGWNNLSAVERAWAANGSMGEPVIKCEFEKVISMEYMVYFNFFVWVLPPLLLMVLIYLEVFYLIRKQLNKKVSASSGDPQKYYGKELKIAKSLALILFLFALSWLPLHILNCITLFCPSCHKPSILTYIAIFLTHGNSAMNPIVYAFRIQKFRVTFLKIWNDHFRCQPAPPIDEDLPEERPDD
Description: (§1) For membrane preparation the culture medium was removed and the cells were washed with PBS and scraped off T75 flasks in ice-cold hypotonic buffer (5 mM Tris HCl, 2 mM EDTA, pH 7.4).
(§2) The cell suspension was homogenized with Polytron and the homogenate was spun for 10 min at 1,000×g. The supernatant was then centrifuged for 30 min at 100,000×g. […] Then the suspension was frozen at −80° C.
(§3) Ki=IC50/(1+[C*]/KD*), where [C*] is the concentration of the radioligand and KD* its dissociation constant.

[2] = target: T2, human recombinant A2B adenosine receptor (Homo sapiens, UniProt P29275); assay: cAMP assay in CHO hA2B; assay type: cell-based; conditions: for cAMP assay in CHO hA22B, percentage in parentheses: percentage given after the > bound, meaning not defined in the patent; for IC50: confidence limits in parentheses, read-out: cAMP assay in CHO hA22B IC50
T2 sequence (P29275 1-332): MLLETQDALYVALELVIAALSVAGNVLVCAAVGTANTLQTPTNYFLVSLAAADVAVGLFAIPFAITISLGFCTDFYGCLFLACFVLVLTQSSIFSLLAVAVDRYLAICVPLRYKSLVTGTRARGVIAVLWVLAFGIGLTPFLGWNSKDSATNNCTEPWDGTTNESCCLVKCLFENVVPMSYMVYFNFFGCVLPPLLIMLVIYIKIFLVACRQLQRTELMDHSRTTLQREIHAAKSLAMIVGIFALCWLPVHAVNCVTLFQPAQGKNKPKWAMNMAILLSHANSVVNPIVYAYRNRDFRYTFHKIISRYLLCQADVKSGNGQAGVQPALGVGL

[3] = target: human recombinant A2A adenosine receptors (Homo sapiens, UniProt P29274); assay: Radioligand binding to hA2A receptors expressed in CHO cells; conditions: for [3H] ZM 241385 binding to hA2A receptors, percentage in parentheses: percentage given after the > bound, meaning not defined in the patent
human recombinant A2A adenosine receptors, sequence (P29274 whole entry): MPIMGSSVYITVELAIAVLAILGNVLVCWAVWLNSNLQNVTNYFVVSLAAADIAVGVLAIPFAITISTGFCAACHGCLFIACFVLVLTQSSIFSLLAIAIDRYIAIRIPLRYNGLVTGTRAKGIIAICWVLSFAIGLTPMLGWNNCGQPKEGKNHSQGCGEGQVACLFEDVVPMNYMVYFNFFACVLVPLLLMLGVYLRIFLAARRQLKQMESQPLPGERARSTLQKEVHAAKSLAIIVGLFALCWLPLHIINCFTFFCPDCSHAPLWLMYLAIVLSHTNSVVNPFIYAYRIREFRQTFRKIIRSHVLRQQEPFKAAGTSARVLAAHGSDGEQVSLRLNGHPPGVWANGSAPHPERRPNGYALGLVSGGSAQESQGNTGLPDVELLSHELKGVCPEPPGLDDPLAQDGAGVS
Description: as §1, §2, §3

[4] = target: T3, human recombinant A3 adenosine receptors (Homo sapiens, UniProt P0DMS8); assay: [3H]-MRE 3008F20 binding to hA3 receptors expressed in CHO cells; conditions: for Ki: CHO cell membranes, 1 nM [3H]-MRE 3008F20, geometric mean, confidence limits in the line below, read-out: [3H] MRE3008F20 binding to hA3 receptors expressed in CHO cells Ki; for [3H] MRE3008F20 binding to hA3 receptors, percentage in parentheses: percentage printed below the > bound, meaning not defined in the patent; for A3 receptor affinity (in words) / selectivity versus the adenosine hA1 subtype (in words): qualitative statement; for selectivity versus the adenosine hA1 subtype (in words): hA3 versus hA1
T3 construct: expressed in transfected cells; host or cells: CHO cells (membranes)
T3 sequence (P0DMS8 1-318): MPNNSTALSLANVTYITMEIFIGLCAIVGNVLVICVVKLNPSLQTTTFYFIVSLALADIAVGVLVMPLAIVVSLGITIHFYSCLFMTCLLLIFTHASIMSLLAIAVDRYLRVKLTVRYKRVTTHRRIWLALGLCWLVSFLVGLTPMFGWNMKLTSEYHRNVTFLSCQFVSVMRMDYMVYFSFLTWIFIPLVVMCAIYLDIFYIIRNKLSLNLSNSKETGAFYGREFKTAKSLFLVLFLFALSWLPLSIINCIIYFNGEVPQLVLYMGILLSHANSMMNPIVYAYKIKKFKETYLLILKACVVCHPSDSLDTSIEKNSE
Description: as §1, §2
Non-specific binding was defined as binding in the presence of 1 μM MRE 3008F20 and was about 30% of total binding.
as §3

[5] = read-out: [3H] DPCPX binding to hA1, CHO cell membranes, 1 nM [3H]-DPCPX, geometric mean with confidence limits in parentheses

SMILES | [3H] DPCPX binding to hA1, percentage in parentheses [1] | melting point | cAMP assay in CHO hA22B, percentage in parentheses [2] | [3H] ZM 241385 binding to hA2A receptors, percentage in parentheses [3] | Ki [4] | IC50 [2] | Ki [1] | Ki [3] | [3H] MRE3008F20 binding to hA3 receptors, percentage in parentheses [4] | Ki [1, 5] | A3 receptor affinity (in words) [4] | selectivity versus the adenosine hA1 subtype (in words) [4]
CCCn1c(=O)c2c(nc3[nH]c(CC)cn32)n(Cc2ccccc2)c1=O [Compound 20, 1-Benzyl-7-ethyl-3-propyl-1H-imidazo[1,2-f]purine-2,4(3H,8H)-dione] | 65% | 285 °C | 97% | 99% | 15 nM | – | – | – | – | – | – | –
CCCn1c(=O)c2c(nc3[nH]c(C)cn32)n(Cc2ccccc2)c1=O [Compound 10, 1-Benzyl-7-methyl-3-propyl-1H-imidazo[1,2-f]purine-2,4(3H,8H)-dione] | – | 255 °C | – | – | – | 2060 nM | – | – | – | – | – | –
CCCn1c(=O)c2c(nc3n2CC(c2ccccc2)=NN3C)n(Cc2ccccc2)c1=O [Compound 6, 8-Benzyl-1-methyl-3-phenyl-6-propyl-1,4-dihydro-8H-1,2,4a,6,8,9-hexaaza-fluorene-5,7-dione] | 79% | – | 94% | 99% | > 1000 nM | > 1000 nM | > 1000 nM | > 1000 nM | (99%) | – | – | –
CCCn1c(=O)c2c(nc3n2CC(CC)=C3)n(Cc2ccccc2)c1=O [Compound 18, 1-Benzyl-7-ethyl-3-propyl-1H-pyrrolo[1,2-f]purine-2,4(3H,6H)-dione] | – | – | 71% | – | – | – | – | – | – | – | – | –
CCCn1c(=O)c2c(nc3n2CC(C)=C3)n(Cc2ccccc2)c1=O [Compound 17, 1-Benzyl-7-methyl-3-propyl-1H-pyrrolo[1,2-f]purine-2,4(3H,6H)-dione] | – | – | – | 99% | 8 nM | 400 nM | 3030 nM | > 5000 nM | – | – | – | –
CCCn1c(=O)c2c(nc3[nH]c(-c4ccccc4)cn32)n(Cc2ccccc2)c1=O [Compound 2, 1-Benzyl-7-phenyl-3-propyl-1H-imidazo[1,2-f]purine-2,4(3H,8H)-dione] | 83% | 255 °C | – | 99% | 115 nM | – | – | – | – | – | – | –
Cc1cn2c(nc3c2c(=O)n(C)c(=O)n3C)[nH]1 [Compound 27, 1,3,7-Trimethyl-1H-imidazo[1,2-f]purine-2,4(3H,8H)-dione] | 96% | – | 88% | 99% | > 1000 nM | > 1000 nM | > 1000 nM | > 1000 nM | (93%) | – | – | –
CCCn1c(=O)c2c(nc3[nH]c(C)c(C)n32)n(Cc2ccccc2)c1=O [Compound 25, 1-Benzyl-6,7-dimethyl-3-propyl-1H-imidazo[1,2-f]purine-2,4(3H,8H)-dione] | 84% | 259 °C | 82% | 92% | 36 nM | – | – | – | – | – | – | –
CCCn1c(=O)c2c(nc3[nH]c(C4CC4)cn32)n(Cc2ccccc2)c1=O [Compound 23, 1-Benzyl-7-cyclopropyl-3-propyl-1H-imidazo[1,2-f]purine-2,4(3H,8H)-dione] | – | 244 to 245 °C | 79% | 98% | 23 nM | – | – | – | – | 350 nM | – | –
CCCn1c(=O)c2c(nc3n2CC(c2ccccc2)=C3)n(Cc2ccccc2)c1=O [Compound 1, 1-Benzyl-7-phenyl-3-propyl-1H-pyrrolo[1,2-f]purine-2,4(3H,6H)-dione] | 75% | – | – | 99% | 200 nM | – | – | – | – | – | – | –
CCCn1c(=O)c2c(nc3[nH]c(C(C)(C)C)cn32)n(Cc2ccccc2)c1=O [Compound 22, 1-Benzyl-7-tert-butyl-3-propyl-1H-imidazo[1,2-f]purine-2,4(3H,8H)-dione] | 51% | 230 °C | 86% | 99% | 99 nM | – | – | – | – | – | – | –
CC(C)Cn1c(=O)c2c(nc3[nH]c(-c4ccccc4)cn32)n(CC(C)C)c1=O [Compound 9, 1,3-Diisobutyl-7-phenyl-1H-imidazo[1,2-f]purine-2,4(3H,8H)-dione] | – | – | 99% | 86% | 144 nM | > 1000 nM | – | > 1000 nM | – | 476 nM | substantial maintenance of A3 receptor affinity | significant loss of selectivity
CCCn1c(=O)c2c(nc3[nH]c(-c4ccc(-c5ccccc5)cc4)cn32)n(Cc2ccccc2)c1=O [Compound 4, 1-Benzyl-7-(biphenyl-4-yl)-3-propyl-1H-imidazo[1,2-f]purine-2,4(3H,8H)-dione] | 95% | 272 °C | – | 98% | > 1000 nM | – | – | – | (90%) | – | – | –
CCCn1c(=O)c2c(nc3[nH]c(C(C)C)cn32)n(Cc2ccccc2)c1=O [Compound 21, 1-Benzyl-7-isopropyl-3-propyl-1H-imidazo[1,2-f]purine-2,4(3H,8H)-dione] | – | 128 to 130 °C | 77% | 91% | 31 nM | – | – | – | – | 460 nM | – | –
CCCn1c(=O)c2c(nc3[nH]c(-c4ccc(OC)cc4)cn32)n(Cc2ccccc2)c1=O [Compound 3, 1-Benzyl-7-(4-methoxyphenyl)-3-propyl-1H-imidazo[1,2-f]purine-2,4(3H,8H)-dione] | 99% | 257 °C | – | 99% | 55 nM | – | – | – | – | – | – | –
CCCn1c(=O)c2c(nc3[nH]c(-c4ccccc4)cn32)n(CCC)c1=O [Compound 8, 7-Phenyl-1,3-dipropyl-1H-imidazo[1,2-f]purine-2,4(3H,8H)-dione] | – | – | 61% | 78% | 99 nM | > 1000 nM | – | > 1000 nM | – | 373 nM | substantial maintenance of A3 receptor affinity | significant loss of selectivity
CCCn1c(=O)c2c(nc3[nH]c(-c4ccc(F)cc4)cn32)n(Cc2ccccc2)c1=O [Compound 5, 1-Benzyl-7-(4-fluorophenyl)-3-propyl-1H-imidazo[1,2-f]purine-2,4(3H,8H)-dione] | 90% | 250 °C | – | 97% | 22 nM | – | – | – | – | – | – | –
CCCn1c(=O)c2c(nc3n2C(C)C(C)=C3)n(Cc2ccccc2)c1=O (stereo not shown) [Compound 19, 1-Benzyl-6,7-dimethyl-3-propyl-1H-pyrrolo[1,2-f]purine-2,4(3H,6H)-dione] | 65% | – | 60% | 91% | 80 nM | – | – | – | – | – | – | –
CCCn1c(=O)c2c(nc3n2CC(c2ccccc2)=NN3CCO)n(Cc2ccccc2)c1=O [Compound 7, 8-Benzyl-1-(2-hydroxy-ethyl)-3-phenyl-6-propyl-1,4-dihydro-8H-1,2,4a,6,8,9-hexaaza-fluorene-5,7-dione] | 91% | – | 83% | 99% | > 1000 nM | > 1000 nM | > 1000 nM | > 1000 nM | (99%) | – | – | –
